From patent US9708314B2, “Heterocyclic amide compound” (NISSAN CHEMICAL INDUSTRIES, LTD., priority 2013, dated 2017)

Legend:
Assay type in all cases: in vivo
Scirpus juncoides = experiment: Test Example 1: herbicidal activity, application before weed generation in submerged conditions; conditions: Application herbicide amount 320 g/ha; Seventeenth Table
Summary of the method: (§1)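 Water-diluted emulsion formulation is applied onto flood water (4 cm deep) covering alluvial soil on the day weed seeds are sown, after transplanting 2.5 leaf stage rice. Rates are expressed per hectare. Injury or control is graded 0–5 three weeks later.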

Monochoria vaginalis = experiment: as above; conditions: Application herbicide amount 320 g/ha; Seventeenth Table
Summary of the method: as §1

[1] = tested on: Echinochloa oryzacola Vasing.; experiment: as above; conditions: Application herbicide amount 320 g/ha; Seventeenth Table
Summary of the method: as §1

Digitaria ciliaris = experiment: Test Example 4: herbicidal effect by application to foliage (diluvial soil, plastic box); conditions: application to foliage, application herbicide amount 320 g/ha
Summary of the method: (§2)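 Greenhouse plants (25° C. to 30° C., 14 d, diluvial soil) receive a foliar spray of water-diluted emulsifiable formulation at defined g/ha. Grading after 3 weeks uses a six-step herbicidal-ratio scale, with 4 covering 70% to <90% and 1 covering 5% to <20%.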

Galium spurium = experiment: as above; conditions: application to foliage, application herbicide amount 320 g/ha
Summary of the method: as §2

[2] = tested on: directly sowed Oryza sativa; experiment: Test Example 3: effect on crop by application to foliage (Wagner pot, water depth 0.1-0.5 cm); conditions: Nineteenth Table; application herbicide amount 320 g/ha
Summary of the method: (§3)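 Post-emergence foliar application at a stated g/ha rate to plants grown 14 days from seed in alluvial soil, greenhouse 25–30 °C. Visual score after 3 weeks: 0 (≤5% effect) through 5 (≥90%).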

Cyperus difformis = experiment: Test Example 3: herbicidal effect by application to foliage (Wagner pot, water depth 0.1-0.5 cm); conditions: Nineteenth Table; application herbicide amount 320 g/ha
Summary of the method: as §3

Leptochloa chinensis = experiment: as above; conditions: Nineteenth Table; application herbicide amount 320 g/ha
Summary of the method: as §3

[3] = tested on: Echinochloa crus-galli var. crus-galli; experiment: as above; conditions: Nineteenth Table; application herbicide amount 320 g/ha
Summary of the method: as §3

COc1cccc(-c2nnc3c(C(=O)Nc4nnc(C)o4)ccc(C(F)(F)F)n23)c1 [1-046]
B: Scirpus juncoides (herbicidal effect grade) (Scirpus juncoides): 3 (Herbicidal ratio of 40% or more and less than 70%) | C: Monochoria vaginalis (herbicidal effect grade) (Monochoria vaginalis): 3 (Herbicidal ratio of 40% or more and less than 70%) | A: Echinochloa oryzicola Vasing. (herbicidal effect grade) [1]: 5 (Herbicidal ratio of 90% or more (almost completely withered)) | F (Digitaria ciliaris) herbicidal effect (Digitaria ciliaris): 5 (Herbicidal ratio of 90% or more (almost completely withered)) | Q (Galium spurium) herbicidal effect (Galium spurium): 2 (Herbicidal ratio of 20% or more and less than 40%) | b (directly sowed Oryza sativa) effect on crop grade [2]: 3 (Herbicidal ratio of 40% or more and less than 70%) | E (Cyperus difformis) herbicidal ratio grade (Cyperus difformis): 3 (Herbicidal ratio of 40% or more and less than 70%) | D (Leptochloa chinensis) herbicidal ratio grade (Leptochloa chinensis): 3 (Herbicidal ratio of 40% or more and less than 70%) | H (Echinochloa crus-galli var. crus-galli) herbicidal ratio grade [3]: 5 (Herbicidal ratio of 90% or more (almost completely withered))

COc1ccccc1-c1nnc2c(C(=O)Nc3nnc(C)o3)ccc(C(F)(F)F)n12 [1-047]
B: Scirpus juncoides (herbicidal effect grade) (Scirpus juncoides): 3 (Herbicidal ratio of 40% or more and less than 70%) | C: Monochoria vaginalis (herbicidal effect grade) (Monochoria vaginalis): 2 (Herbicidal ratio of 20% or more and less than 40%) | A: Echinochloa oryzicola Vasing. (herbicidal effect grade) [1]: 4 (Herbicidal ratio of 70% or more and less than 90%) | F (Digitaria ciliaris) herbicidal effect (Digitaria ciliaris): 4 (Herbicidal ratio of 70% or more and less than 90%) | Q (Galium spurium) herbicidal effect (Galium spurium): 2 (Herbicidal ratio of 20% or more and less than 40%) | b (directly sowed Oryza sativa) effect on crop grade [2]: 3 (Herbicidal ratio of 40% or more and less than 70%) | E (Cyperus difformis) herbicidal ratio grade (Cyperus difformis): 4 (Herbicidal ratio of 70% or more and less than 90%) | D (Leptochloa chinensis) herbicidal ratio grade (Leptochloa chinensis): 5 (Herbicidal ratio of 90% or more (almost completely withered)) | H (Echinochloa crus-galli var. crus-galli) herbicidal ratio grade [3]: 5 (Herbicidal ratio of 90% or more (almost completely withered))

Cc1nnc(NC(=O)c2ccc(C(F)(F)F)n3c(CC(=O)O)nnc23)o1 [1-048]
B: Scirpus juncoides (herbicidal effect grade) (Scirpus juncoides): 0 (Herbicidal ratio of 5% or less (almost no effect)) | C: Monochoria vaginalis (herbicidal effect grade) (Monochoria vaginalis): 0 (Herbicidal ratio of 5% or less (almost no effect)) | A: Echinochloa oryzicola Vasing. (herbicidal effect grade) [1]: 3 (Herbicidal ratio of 40% or more and less than 70%) | F (Digitaria ciliaris) herbicidal effect (Digitaria ciliaris): 5 (Herbicidal ratio of 90% or more (almost completely withered)) | Q (Galium spurium) herbicidal effect (Galium spurium): 3 (Herbicidal ratio of 40% or more and less than 70%) | b (directly sowed Oryza sativa) effect on crop grade [2]: 0 (Herbicidal ratio of 5% or less (almost no effect)) | E (Cyperus difformis) herbicidal ratio grade (Cyperus difformis): 3 (Herbicidal ratio of 40% or more and less than 70%) | D (Leptochloa chinensis) herbicidal ratio grade (Leptochloa chinensis): 4 (Herbicidal ratio of 70% or more and less than 90%) | H (Echinochloa crus-galli var. crus-galli) herbicidal ratio grade [3]: 5 (Herbicidal ratio of 90% or more (almost completely withered))

Cc1nnc(NC(=O)c2ccc(C(F)(F)F)n3c(CC(=O)OC(C)C)nnc23)o1 [1-049]
B: Scirpus juncoides (herbicidal effect grade) (Scirpus juncoides): 2 (Herbicidal ratio of 20% or more and less than 40%) | C: Monochoria vaginalis (herbicidal effect grade) (Monochoria vaginalis): 0 (Herbicidal ratio of 5% or less (almost no effect)) | A: Echinochloa oryzicola Vasing. (herbicidal effect grade) [1]: 5 (Herbicidal ratio of 90% or more (almost completely withered)) | F (Digitaria ciliaris) herbicidal effect (Digitaria ciliaris): 5 (Herbicidal ratio of 90% or more (almost completely withered)) | Q (Galium spurium) herbicidal effect (Galium spurium): 3 (Herbicidal ratio of 40% or more and less than 70%) | b (directly sowed Oryza sativa) effect on crop grade [2]: 1 (Herbicidal ratio of 5% or more and less than 20%) | E (Cyperus difformis) herbicidal ratio grade (Cyperus difformis): 4 (Herbicidal ratio of 70% or more and less than 90%) | D (Leptochloa chinensis) herbicidal ratio grade (Leptochloa chinensis): 4 (Herbicidal ratio of 70% or more and less than 90%) | H (Echinochloa crus-galli var. crus-galli) herbicidal ratio grade [3]: 5 (Herbicidal ratio of 90% or more (almost completely withered))

CC(C)c1nnc2c(C(=O)Nc3nnco3)ccc(C(F)(F)F)n12 [1-050]
B: Scirpus juncoides (herbicidal effect grade) (Scirpus juncoides): 5 (Herbicidal ratio of 90% or more (almost completely withered)) | C: Monochoria vaginalis (herbicidal effect grade) (Monochoria vaginalis): 4 (Herbicidal ratio of 70% or more and less than 90%) | A: Echinochloa oryzicola Vasing. (herbicidal effect grade) [1]: 5 (Herbicidal ratio of 90% or more (almost completely withered)) | F (Digitaria ciliaris) herbicidal effect (Digitaria ciliaris): 5 (Herbicidal ratio of 90% or more (almost completely withered)) | Q (Galium spurium) herbicidal effect (Galium spurium): 2 (Herbicidal ratio of 20% or more and less than 40%) | b (directly sowed Oryza sativa) effect on crop grade [2]: 1 (Herbicidal ratio of 5% or more and less than 20%) | E (Cyperus difformis) herbicidal ratio grade (Cyperus difformis): 5 (Herbicidal ratio of 90% or more (almost completely withered)) | D (Leptochloa chinensis) herbicidal ratio grade (Leptochloa chinensis): 5 (Herbicidal ratio of 90% or more (almost completely withered)) | H (Echinochloa crus-galli var. crus-galli) herbicidal ratio grade [3]: 5 (Herbicidal ratio of 90% or more (almost completely withered))

CC(C)c1nnc2c(C(=O)Nc3nnc(C4CC4)o3)ccc(C(F)(F)F)n12 [1-051]
B: Scirpus juncoides (herbicidal effect grade) (Scirpus juncoides): 4 (Herbicidal ratio of 70% or more and less than 90%) | C: Monochoria vaginalis (herbicidal effect grade) (Monochoria vaginalis): 4 (Herbicidal ratio of 70% or more and less than 90%) | A: Echinochloa oryzicola Vasing. (herbicidal effect grade) [1]: 5 (Herbicidal ratio of 90% or more (almost completely withered)) | F (Digitaria ciliaris) herbicidal effect (Digitaria ciliaris): 3 (Herbicidal ratio of 40% or more and less than 70%) | Q (Galium spurium) herbicidal effect (Galium spurium): 2 (Herbicidal ratio of 20% or more and less than 40%) | b (directly sowed Oryza sativa) effect on crop grade [2]: 0 (Herbicidal ratio of 5% or less (almost no effect)) | E (Cyperus difformis) herbicidal ratio grade (Cyperus difformis): 4 (Herbicidal ratio of 70% or more and less than 90%) | D (Leptochloa chinensis) herbicidal ratio grade (Leptochloa chinensis): 5 (Herbicidal ratio of 90% or more (almost completely withered)) | H (Echinochloa crus-galli var. crus-galli) herbicidal ratio grade [3]: 4 (Herbicidal ratio of 70% or more and less than 90%)

COCCc1nnc(NC(=O)c2ccc(C(F)(F)F)n3c(C(C)C)nnc23)o1 [1-052]
B: Scirpus juncoides (herbicidal effect grade) (Scirpus juncoides): 3 (Herbicidal ratio of 40% or more and less than 70%) | C: Monochoria vaginalis (herbicidal effect grade) (Monochoria vaginalis): 2 (Herbicidal ratio of 20% or more and less than 40%) | A: Echinochloa oryzicola Vasing. (herbicidal effect grade) [1]: 3 (Herbicidal ratio of 40% or more and less than 70%) | F (Digitaria ciliaris) herbicidal effect (Digitaria ciliaris): 3 (Herbicidal ratio of 40% or more and less than 70%) | Q (Galium spurium) herbicidal effect (Galium spurium): 1 (Herbicidal ratio of 5% or more and less than 20%) | b (directly sowed Oryza sativa) effect on crop grade [2]: 0 (Herbicidal ratio of 5% or less (almost no effect)) | E (Cyperus difformis) herbicidal ratio grade (Cyperus difformis): 5 (Herbicidal ratio of 90% or more (almost completely withered)) | D (Leptochloa chinensis) herbicidal ratio grade (Leptochloa chinensis): 5 (Herbicidal ratio of 90% or more (almost completely withered)) | H (Echinochloa crus-galli var. crus-galli) herbicidal ratio grade [3]: 4 (Herbicidal ratio of 70% or more and less than 90%)

Cc1nnc(NC(=O)c2ccc(C(F)F)n3c(C(C)C)nnc23)o1 [1-053]
B: Scirpus juncoides (herbicidal effect grade) (Scirpus juncoides): 3 (Herbicidal ratio of 40% or more and less than 70%) | C: Monochoria vaginalis (herbicidal effect grade) (Monochoria vaginalis): 2 (Herbicidal ratio of 20% or more and less than 40%) | A: Echinochloa oryzicola Vasing. (herbicidal effect grade) [1]: 2 (Herbicidal ratio of 20% or more and less than 40%) | F (Digitaria ciliaris) herbicidal effect (Digitaria ciliaris): 3 (Herbicidal ratio of 40% or more and less than 70%) | Q (Galium spurium) herbicidal effect (Galium spurium): 2 (Herbicidal ratio of 20% or more and less than 40%) | b (directly sowed Oryza sativa) effect on crop grade [2]: 0 (Herbicidal ratio of 5% or less (almost no effect)) | E (Cyperus difformis) herbicidal ratio grade (Cyperus difformis): 4 (Herbicidal ratio of 70% or more and less than 90%) | D (Leptochloa chinensis) herbicidal ratio grade (Leptochloa chinensis): 4 (Herbicidal ratio of 70% or more and less than 90%) | H (Echinochloa crus-galli var. crus-galli) herbicidal ratio grade [3]: 4 (Herbicidal ratio of 70% or more and less than 90%)
